This passage reports inhibition and Competition % results from US20120270237A9, “METHODS FOR THE IDENTIFICATION OF KINASE INTERACTING MOLECULES AND FOR THE PURIFICATION OF KINASE PROTEINS” (Cellzone AG, priority 2009, published 2012).

Test in all cases: Kinobeads competition binding, HL60 cell lysate
What all share (set-up): endogenous in cells
Holding throughout (details): 10 μM free compound

One assay concerns the target T1, PKD3 (Homo sapiens, UniProt O94806).
T1 sequence (O94806 1-890): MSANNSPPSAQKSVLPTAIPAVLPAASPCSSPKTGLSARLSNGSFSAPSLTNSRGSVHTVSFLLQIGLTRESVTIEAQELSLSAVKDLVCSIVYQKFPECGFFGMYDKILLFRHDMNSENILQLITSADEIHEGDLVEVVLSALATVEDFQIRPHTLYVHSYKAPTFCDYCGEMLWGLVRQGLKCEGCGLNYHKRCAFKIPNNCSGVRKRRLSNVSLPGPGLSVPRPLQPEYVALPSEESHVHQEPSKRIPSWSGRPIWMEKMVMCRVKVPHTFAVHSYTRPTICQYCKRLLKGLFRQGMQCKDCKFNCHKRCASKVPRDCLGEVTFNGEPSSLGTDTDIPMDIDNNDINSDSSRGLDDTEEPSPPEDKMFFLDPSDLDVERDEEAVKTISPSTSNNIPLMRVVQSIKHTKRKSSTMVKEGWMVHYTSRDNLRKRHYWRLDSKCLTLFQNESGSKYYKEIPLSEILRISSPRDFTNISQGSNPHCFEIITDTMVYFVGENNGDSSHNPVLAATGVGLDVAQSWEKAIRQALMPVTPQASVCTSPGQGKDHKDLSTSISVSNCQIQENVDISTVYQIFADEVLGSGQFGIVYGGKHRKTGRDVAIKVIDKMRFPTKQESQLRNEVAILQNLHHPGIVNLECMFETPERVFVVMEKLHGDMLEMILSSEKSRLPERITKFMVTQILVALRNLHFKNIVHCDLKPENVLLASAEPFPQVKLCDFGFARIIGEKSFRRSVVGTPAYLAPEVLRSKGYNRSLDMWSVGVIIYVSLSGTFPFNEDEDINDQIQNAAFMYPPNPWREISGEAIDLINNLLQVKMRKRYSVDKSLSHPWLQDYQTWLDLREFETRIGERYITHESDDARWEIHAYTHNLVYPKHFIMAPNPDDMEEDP
Here is the method:
(§1) To one aliquot of cell lysate 10 μM of the free compound (FIG. 3, CZC31326) was added and allowed to bind to proteins in the lysate. Then the affinity matrix with the immobilized compound (Example 1) was added to capture proteins that were not interacting with the previously added free compound. Beads were separated from the lysate and bead bound proteins were eluted in SDS sample buffer and subsequently separated by SDS-Polyacrylamide gel electrophoresis (FIG. 4). Suitable gel bands were cut out and subjected to in-gel proteolytic digestion with trypsin. The second lysate aliquot was processed identically, however no free compound was added (DMSO solvent control). Peptides originating from samples 1 and 2 were labeled with iTRAQ reagents (iTRAQ 114 and iTRAQ 117) and the combined samples were analyzed with a nano-flow liquid chromatography system coupled online to a tandem mass spectrometer (LC-MS/MS) experiment followed by iTRAQ reporter ion quantification in the MS/MS spectra (Ross et al., 2004. Mol. Cell. Proteomics 3(12):1154-1169). Further experimental protocols can be found in WO2006/134056 and a previous publication (Bantscheff et al., 2007. Nature Biotechnology 25, 1035-1044). Sepharose-beads with the immobilized compound (100 μl beads per pull-down experiment) were equilibrated in lysis buffer and incubated with a cell lysate sample containing 50 mg of protein on an end-over-end shaker (Roto Shake Genie, Scientific Industries Inc.) for 2 hours at 4° C. Beads were collected, transferred to Mobicol-columns (MoBiTech 10055) and washed with 10 ml lysis buffer containing 0.4% NP40 detergent, followed by 5 ml lysis buffer containing 0.2% detergent. To elute bound proteins, 60 μl 2×SDS sample buffer was added to the column. The column was incubated for 30 minutes at 50° C. and the eluate was transferred to a siliconized microfuge tube by centrifugation. Proteins were then alkylated with 108 mM iodoacetamid. Proteins were then separated by SDS-Polyacrylamide electrophoresis (SDS-PAGE). The peptide extracts of samples treated with 10 μM of free compound (CZC31326) and the solvent control (0.5% DMSO) were treated with different variants of the isobaric tagging reagent (iTRAQ Reagents Multiplex Kit, part number 4352135, Applied Biosystems, Foster City, Calif., USA). The iTRAQ reagents are a set of multiplexed, amine-specific, stable isotope reagents that can label peptides on amino groups in up to four different biological samples enabling simultaneous identification and quantitation of peptides. The iTRAQ reagents were used according to instructions provided by the manufacturer. The samples were resuspended in 10 μl 50 mM TEAB solution, pH 8.5 and 10 μl ethanol were added. The iTRAQ reagent was dissolved in 120 μl ethanol and 10 μl of reagent solution were added to the sample. The labeling reaction was performed at room temperature for one hour on a horizontal shaker and stopped by adding 5 μl of 100 mM TEAB and 100 mM glycine in water. The two labeled sampled were then combined, dried in a vacuum centrifuge and resuspended in 10 μl of 0.1% formic acid in water. Relative protein quantitation was performed using peak areas of iTRAQ reporter ion signals essentially as described in an earlier publication (Bantscheff et al., 2007. Nature Biotechnology 25, 1035-1044).

The target of another assay is CK2a1 (Homo sapiens, UniProt P68400). How it is done: as §1
CK2a1, sequence (P68400 whole entry): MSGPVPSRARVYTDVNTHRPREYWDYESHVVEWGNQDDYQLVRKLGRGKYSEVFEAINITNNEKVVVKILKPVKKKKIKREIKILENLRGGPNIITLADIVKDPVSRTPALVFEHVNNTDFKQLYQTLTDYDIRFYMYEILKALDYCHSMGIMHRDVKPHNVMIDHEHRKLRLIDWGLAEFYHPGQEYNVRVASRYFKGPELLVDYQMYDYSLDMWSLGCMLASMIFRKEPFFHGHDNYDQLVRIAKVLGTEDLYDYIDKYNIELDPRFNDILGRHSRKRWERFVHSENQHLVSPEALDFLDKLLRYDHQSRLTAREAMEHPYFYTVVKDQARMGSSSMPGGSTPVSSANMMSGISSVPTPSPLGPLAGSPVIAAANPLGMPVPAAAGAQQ
In the next assay the target is T2, MST1 (Homo sapiens, UniProt Q13043).
T2 sequence (Q13043 1-487): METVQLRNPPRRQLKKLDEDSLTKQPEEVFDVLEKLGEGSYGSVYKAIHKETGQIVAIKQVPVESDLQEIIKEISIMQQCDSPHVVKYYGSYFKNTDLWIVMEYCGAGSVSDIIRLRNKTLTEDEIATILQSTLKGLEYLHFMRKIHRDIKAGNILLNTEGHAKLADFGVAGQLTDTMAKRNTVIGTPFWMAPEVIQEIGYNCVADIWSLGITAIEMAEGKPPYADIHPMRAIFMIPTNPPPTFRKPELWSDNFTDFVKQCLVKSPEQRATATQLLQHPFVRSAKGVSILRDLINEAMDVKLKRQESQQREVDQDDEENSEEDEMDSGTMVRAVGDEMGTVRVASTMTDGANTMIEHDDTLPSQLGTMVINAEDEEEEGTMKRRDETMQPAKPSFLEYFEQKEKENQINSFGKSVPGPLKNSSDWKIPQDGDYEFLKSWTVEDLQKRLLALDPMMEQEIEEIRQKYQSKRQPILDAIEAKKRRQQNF
How it is done: as §1

A further assay addresses JAK1 (Homo sapiens, UniProt P23458). How it is done: as §1
For the next assay, the target named is PKN2 (Homo sapiens, UniProt Q16513). How it is done:
as §1

The next assay concerns the target MLK3 (Homo sapiens, UniProt Q16584). How it is done:
as §1

PKN2, sequence (Q16513 whole entry): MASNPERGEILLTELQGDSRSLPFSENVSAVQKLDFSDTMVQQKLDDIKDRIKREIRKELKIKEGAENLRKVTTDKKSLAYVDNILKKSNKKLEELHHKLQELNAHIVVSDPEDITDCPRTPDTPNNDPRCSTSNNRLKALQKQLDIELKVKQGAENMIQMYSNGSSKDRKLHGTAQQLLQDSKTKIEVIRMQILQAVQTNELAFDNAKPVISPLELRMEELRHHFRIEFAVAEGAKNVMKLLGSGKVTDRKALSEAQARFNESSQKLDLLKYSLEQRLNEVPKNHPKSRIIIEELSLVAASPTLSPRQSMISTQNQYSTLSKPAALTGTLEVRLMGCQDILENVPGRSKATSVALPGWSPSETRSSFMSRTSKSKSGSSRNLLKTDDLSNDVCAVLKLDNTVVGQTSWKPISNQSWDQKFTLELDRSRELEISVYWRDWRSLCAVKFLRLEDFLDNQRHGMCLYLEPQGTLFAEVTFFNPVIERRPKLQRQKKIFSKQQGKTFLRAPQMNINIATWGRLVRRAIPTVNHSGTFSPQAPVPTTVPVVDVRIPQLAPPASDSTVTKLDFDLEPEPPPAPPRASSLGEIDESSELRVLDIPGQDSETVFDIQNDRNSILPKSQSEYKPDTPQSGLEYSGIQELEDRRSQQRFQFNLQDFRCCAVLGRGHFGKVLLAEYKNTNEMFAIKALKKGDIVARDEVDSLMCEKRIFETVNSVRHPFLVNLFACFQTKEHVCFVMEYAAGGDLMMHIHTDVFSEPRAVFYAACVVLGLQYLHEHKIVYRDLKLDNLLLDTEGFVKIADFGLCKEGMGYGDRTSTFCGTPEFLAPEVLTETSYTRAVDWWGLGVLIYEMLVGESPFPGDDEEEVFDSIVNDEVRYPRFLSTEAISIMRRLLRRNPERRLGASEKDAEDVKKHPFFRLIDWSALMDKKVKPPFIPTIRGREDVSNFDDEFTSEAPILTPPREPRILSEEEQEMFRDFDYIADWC
MLK3, sequence (Q16584 whole entry): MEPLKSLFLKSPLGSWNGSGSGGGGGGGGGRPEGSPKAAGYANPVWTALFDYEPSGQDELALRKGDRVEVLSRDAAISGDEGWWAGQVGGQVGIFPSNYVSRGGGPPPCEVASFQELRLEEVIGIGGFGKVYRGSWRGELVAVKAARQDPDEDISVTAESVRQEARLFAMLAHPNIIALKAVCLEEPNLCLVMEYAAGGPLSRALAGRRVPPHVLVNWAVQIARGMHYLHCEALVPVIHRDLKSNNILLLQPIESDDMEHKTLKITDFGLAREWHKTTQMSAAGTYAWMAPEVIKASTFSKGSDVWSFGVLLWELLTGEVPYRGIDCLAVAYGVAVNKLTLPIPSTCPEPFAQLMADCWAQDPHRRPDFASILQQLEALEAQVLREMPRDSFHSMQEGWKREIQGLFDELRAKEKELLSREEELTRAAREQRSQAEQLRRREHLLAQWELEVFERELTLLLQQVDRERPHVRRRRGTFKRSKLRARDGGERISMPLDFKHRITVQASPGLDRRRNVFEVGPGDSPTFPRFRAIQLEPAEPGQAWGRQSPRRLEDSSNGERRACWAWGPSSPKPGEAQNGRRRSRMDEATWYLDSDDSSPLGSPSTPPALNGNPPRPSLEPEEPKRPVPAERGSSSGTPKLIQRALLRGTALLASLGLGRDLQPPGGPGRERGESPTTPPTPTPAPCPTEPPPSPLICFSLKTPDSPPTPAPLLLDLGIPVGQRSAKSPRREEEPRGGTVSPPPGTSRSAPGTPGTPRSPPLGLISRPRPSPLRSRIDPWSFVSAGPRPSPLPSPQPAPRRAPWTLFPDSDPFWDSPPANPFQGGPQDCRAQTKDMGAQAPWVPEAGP
JAK1, sequence (P23458 whole entry): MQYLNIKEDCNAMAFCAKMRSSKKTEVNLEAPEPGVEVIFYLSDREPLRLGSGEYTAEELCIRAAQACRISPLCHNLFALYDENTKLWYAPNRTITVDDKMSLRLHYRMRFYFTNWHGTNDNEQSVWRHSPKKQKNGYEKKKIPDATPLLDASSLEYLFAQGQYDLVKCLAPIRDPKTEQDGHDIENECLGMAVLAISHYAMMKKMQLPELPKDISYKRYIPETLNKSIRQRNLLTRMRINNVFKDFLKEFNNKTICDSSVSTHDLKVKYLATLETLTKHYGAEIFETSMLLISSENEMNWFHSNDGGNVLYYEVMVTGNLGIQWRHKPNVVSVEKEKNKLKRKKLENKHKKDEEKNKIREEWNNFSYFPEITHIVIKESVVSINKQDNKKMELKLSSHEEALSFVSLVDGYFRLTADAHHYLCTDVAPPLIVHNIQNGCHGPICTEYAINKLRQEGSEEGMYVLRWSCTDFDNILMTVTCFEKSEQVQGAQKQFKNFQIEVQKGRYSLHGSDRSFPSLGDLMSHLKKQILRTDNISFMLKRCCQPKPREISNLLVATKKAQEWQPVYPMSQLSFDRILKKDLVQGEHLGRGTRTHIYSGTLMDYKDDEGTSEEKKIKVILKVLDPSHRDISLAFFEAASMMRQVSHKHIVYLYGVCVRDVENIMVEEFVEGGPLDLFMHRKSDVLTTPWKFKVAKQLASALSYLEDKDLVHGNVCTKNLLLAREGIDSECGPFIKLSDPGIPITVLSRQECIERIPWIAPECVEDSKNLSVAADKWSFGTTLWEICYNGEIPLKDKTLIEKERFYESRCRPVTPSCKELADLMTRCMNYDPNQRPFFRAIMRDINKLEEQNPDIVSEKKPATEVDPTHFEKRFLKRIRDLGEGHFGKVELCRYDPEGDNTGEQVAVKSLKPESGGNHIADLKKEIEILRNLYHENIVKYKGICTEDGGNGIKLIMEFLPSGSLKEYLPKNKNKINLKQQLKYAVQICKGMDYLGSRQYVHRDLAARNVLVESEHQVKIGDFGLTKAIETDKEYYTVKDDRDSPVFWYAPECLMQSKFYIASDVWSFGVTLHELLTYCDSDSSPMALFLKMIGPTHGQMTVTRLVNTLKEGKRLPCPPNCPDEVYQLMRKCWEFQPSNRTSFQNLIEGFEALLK

On to `CS(=O)(=O)Nc1ccccc1Nc1nc(Nc2cccc(OCCN)c2)ncc1Cl` [CZC31326, N-(2-(2-(3-(2-aminoethoxy)phenylamino)-5-chloropyrimidin-4-ylamino)phenyl)methanesulfonamide], for which the inhibition – broadly, the relative decrease from the control value, in per cent – at 10 µM was determined as 96.9% at PKD3, 97.9% at CK2a1 and 93.9% at PKN2. Besides, the results for the Competition % on MST1, on JAK1 and at MLK3 were 97.7%, 97.8% and 96.5%, respectively.
